# Patent US20200383985A1, “Inhibitors of Protease Activated Receptor-2” (Endosome Therapeutics, Inc., priority 2017, published 2020)
# “Also recorded” adds a separate entry of the source.
# Columns and labels:
# mice = assay: Colonic compliance in awake mice; format: in vivo, mouse; conditions: awake healthy mice
# Method: Noxious colorectal distension (CRD) triggers the visceromotor response (VMR), a nociceptive brainstem reflex consisting of contraction of abdominal muscles, which can be monitored by electromyography. This approach allows assessment of visceral sensitivity in awake mice (Castro, J. et al., Br. J. Pharmacol. 2017, 175(12): 2384-2398). To examine protease-induced hy-persensitivity, a protease mixture (10 nM trypsin+100 nM NE+100 nM CS) or vehicle (saline) (100 μL) was instilled into the colon (enema) of healthy mice. After 15 min, the VMR was measured in response to graded CRD (20-80 mm Hg) with a barostat balloon. In vehicle-treated mice, CRD induced a graded VMR (FIG. 9I). […] Because alterations in the compliance of the colon can alter VMR to CRD, the pressure/volume relationship was measured at all distending pressures. Compliance of the colon was unaffected by the protease mixture or I-343 (FIGS. 21E and F). […]
# Electromyography (EMG) of abdominal muscles was used to monitor VMR to CRD (Eichel, K. et al., Nat. Cell Biol. 2016, 18(3): 303-310). […] The EMG signal was recorded (NL100AK headstage), amplified (NL104), filtered (NL 125/126, Neurolog, Digitimer Ltd, bandpass 50-5000 Hz), and digitized (CED 1401, Cambridge Electronic Design) for off-line analysis using Spike2 (Cambridge Electronic Design). […]
# PAR2-RLuc8/βARR2-YFP = target: T1, PAR2-RLuc8/βARR2-YFP (Homo sapiens, UniProt P55085); assay: BRET assay of βARR2 recruitment in DRG neurons; format: cell-based; conditions: mouse DRG neurons
# T1 construct: expressed in transfected cells; host or cells: mouse (C57BL/6) DRG neurons, nucleofection
# T1 sequence (P55085 26-397): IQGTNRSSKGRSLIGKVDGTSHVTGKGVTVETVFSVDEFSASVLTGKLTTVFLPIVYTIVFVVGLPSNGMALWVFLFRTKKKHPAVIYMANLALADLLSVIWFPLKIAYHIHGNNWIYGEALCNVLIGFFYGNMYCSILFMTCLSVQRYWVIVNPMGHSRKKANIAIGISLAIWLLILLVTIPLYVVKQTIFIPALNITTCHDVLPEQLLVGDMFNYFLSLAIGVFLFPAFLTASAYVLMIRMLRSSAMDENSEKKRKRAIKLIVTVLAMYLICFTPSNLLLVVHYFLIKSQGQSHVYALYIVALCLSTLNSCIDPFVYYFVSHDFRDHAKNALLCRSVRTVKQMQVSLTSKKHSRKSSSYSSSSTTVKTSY
# Method: To assess endocytosis of PAR2 in nociceptors, mouse (m) PAR2-GFP was transfected in to mouse DRG neurons. In vehicle-treated neurons, mPAR2-GFP was detected at the plasma membrane and in intracellular compartments that may correspond to stores of PAR2 in the Golgi apparatus (FIG. 4A) (Jensen D. D., et al. J Biol Chem. 2016, 291(21): 11285-11299). Trypsin, but not NE or CS (100 nM, 30 min), induced mPAR2-GFP endocytosis (FIG. 4A, B). Dy4, but not Dy4 inact, inhibited trypsin-induced endocytosis of mPAR2-GFP (FIG. 4C). To determine whether PAR2 recruits βARRs, which mediate endocytosis, Bioluminescence Resonance Energy Transfer (BRET) sensors were expressed for PAR2-RLuc8 (donor) and βARR2-YFP (acceptor) in mouse DRG neurons. Trypsin, but not NE or CS, increased PAR2-RLuc8/βARR2-YFP BRET (FIG. 4D).
# DRG were collected from C57BL/6 mice and Sprague-Dawley rats (all levels). […]
# Mouse DRG neurons were equilibrated in HBSS-HEPES (30 min, 37° C.), and incubated with the Renilla luciferase substrate coelenterazine h (NanoLight Technologies) (5 μM, 5 min). BRET ratios were measured at 475±30 nm and 535±30 nm using a CLARIOstar Monochronometer Microplate Reader (BMG LabTech) before and after challenge with trypsin (10 nM), NE (100 nM) or CS (100 nM). Data are presented as a BRET ratio, calculated as the ratio of YFP to RLuc8 signals, and normalized to the baseline average. […]
compliance of the colon (pressure/volume relationship) (mice),PAR2-RLuc8/βARR2-YFP BRET (PAR2-RLuc8/βARR2-YFP),Compound
unaffected; also recorded: unchanged,–,"Cc1nc(C(=O)N2CCN(C(=O)c3cn4nc(-c5ccc(F)cc5)cc(C(C)(C)C)c4n3)C(C)(C)C2)n[nH]1 [Compound I-343, (8-(tert-butyl)-6-(4-fluorophenyl)imidazo[1,2-b]pyridazin-2-yl)(2,2-dimethyl-4-(5-methyl-1H-1,2,4-triazole-3-carbonyl)piperazin-1-yl)methanone]"
–,not,NE: protease (elastase) activating PAR2 by biased mechanisms
–,increased,trypsin
